Tests used:
[1] = target: T1, GLS1 (purified recombinant human GAC) (Homo sapiens, UniProt O94925); experiment: GLS1 enzymatic activity assay (dual-coupled, Amplex UltraRed/resorufin); assay type: biochemical
T1 sequence (O94925 55-598 isoform O94925-3 limits assumed): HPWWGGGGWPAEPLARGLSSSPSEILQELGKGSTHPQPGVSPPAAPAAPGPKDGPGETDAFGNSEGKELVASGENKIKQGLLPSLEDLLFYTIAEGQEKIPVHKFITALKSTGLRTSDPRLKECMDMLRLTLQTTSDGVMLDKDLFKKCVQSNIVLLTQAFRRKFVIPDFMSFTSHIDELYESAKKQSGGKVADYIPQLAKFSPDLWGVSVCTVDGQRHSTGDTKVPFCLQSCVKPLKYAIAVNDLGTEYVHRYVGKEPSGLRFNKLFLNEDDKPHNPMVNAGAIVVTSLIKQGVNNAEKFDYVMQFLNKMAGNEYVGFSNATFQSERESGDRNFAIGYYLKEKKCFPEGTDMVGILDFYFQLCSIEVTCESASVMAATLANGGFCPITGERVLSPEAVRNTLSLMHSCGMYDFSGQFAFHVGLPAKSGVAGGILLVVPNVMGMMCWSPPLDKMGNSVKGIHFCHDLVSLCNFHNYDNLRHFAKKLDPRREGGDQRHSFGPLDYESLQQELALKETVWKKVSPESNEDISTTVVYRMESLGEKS
In short: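 Recombinant human GAC (2 nM) preincubated with 50 mM potassium phosphate, then inhibitor (10 min each, RT); 1 mM glutamine, pH 7.4 Hepes buffer, 1% DMSO. Glutamate coupled via glutamate oxidase/HRP to resorufin (Ex 530/Em 590), kinetic or 20-min endpoint; IC50 by four-parameter logistic fit.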

A549 cells = experiment: A549 proliferation (viability) assay, Cell Titer Fluor, 72 hours; assay type: cell-based; conditions: Homo sapiens
In short: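 1000 A549 cells/well, RPMI 1640/10% dialyzed FBS, 24 h attach; compound 72 h, 0.5% DMSO, 37 °C/5% CO2; Cell Titer Fluor fluorescence; EC50 via 4-parameter logistic.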

Compound | IC50 [1] | EC50 (A549 cells)
CC(=O)N1CCN(CC(=O)Nc2ccn(CCC(F)Cn3cc(C(=O)NCc4cccc(OC(F)(F)F)c4)nn3)c(=O)c2)CC1 (centres unmarked) [Example 229, 1-(4-{4-[2-(4-acetylpiperazin-1-yl)acetamido]-2-oxo-1,2-dihydropyridin-1-yl}-2-fluorobutyl)-N-{[3-(trifluoromethoxy)phenyl]methyl}-1H-1,2,3-triazole-4-carboxamide] | 100 to 500 nM | 500 to 5000 nM
CC(=O)Nc1ccn(CCCCc2ccc(NC(=O)Cc3cccc(OC(F)(F)F)c3)nn2)c(=O)n1 [Example 76, N-{6-[4-(4-acetamido-2-oxo-1,2-dihydropyrimidin-1-yl)butyl]pyridazin-3-yl}-2-[3-(trifluoromethoxy)phenyl]acetamide] | < 100 nM | 100 to 500 nM
O=C(Cc1ccccc1)Nc1ccn(CCC(F)Cn2cc(C(=O)NCc3cncc(C(F)(F)F)c3)nn2)c(=O)c1F (centres unmarked) [Example 348, 1-{2-fluoro-4-[3-fluoro-2-oxo-4-(2-phenylacetamido)-1,2-dihydropyridin-1-yl]butyl}-N-{[5-(trifluoromethyl)pyridin-3-yl]methyl}-1H-1,2,3-triazole-4-carboxamide] | < 100 nM | < 100 nM
O=C(Cc1ccccc1)Nc1ccn(CCCCc2nnc(NC(=O)Cc3ccccc3)s2)c(=O)n1 [Example 73, N-(2-oxo-1-{4-[5-(2-phenylacetamido)-1,3,4-thiadiazol-2-yl]butyl}-1,2-dihydropyrimidin-4-yl)-2-phenylacetamide] | < 100 nM | 500 to 5000 nM
O=C(Nc1ccn(CCC(F)Cn2cc(C(=O)NCc3cccc(OC(F)(F)F)c3)nn2)c(=O)c1F)C(=O)N1CC2(CCC2)C1 (centres unmarked) [Example 424, 1-{4-[4-(2-{2-azaspiro[3.3]heptan-2-yl}-2-oxoacetamido)-3-fluoro-2-oxo-1,2-dihydropyridin-1-yl]-2-fluorobutyl}-N-{[3-(trifluoromethoxy)phenyl]methyl}-1H-1,2,3-triazole-4-carboxamide] | < 100 nM | 100 to 500 nM
Cc1ccc(CNC(=O)c2cn(CC(F)CCn3ccc(NC(=O)OC4CCC4)nc3=O)nn2)cn1 (centres unmarked) [Example 413, cyclobutyl N-{1-[3-fluoro-4-(4-{[(6-methylpyridin-3-yl)methyl]carbamoyl}-1H-1,2,3-triazol-1-yl)butyl]-2-oxo-1,2-dihydropyrimidin-4-yl}carbamate] | 100 to 500 nM | 500 to 5000 nM
O=C(NCc1cccc(OC(F)(F)F)c1)c1cn(CC(F)CCn2ccc(NC(=O)C(F)c3ccccc3)c(F)c2=O)nn1 (centres unmarked) [Example 327, 1-{2-fluoro-4-[3-fluoro-4-(2-fluoro-2-phenylacetamido)-2-oxo-1,2-dihydropyridin-1-yl]butyl}-N-{[3-(trifluoromethoxy)phenyl]methyl}-1H-1,2,3-triazole-4-carboxamide] | < 100 nM | < 100 nM
O=C(CC1CCCCC1)Nc1ccn(CCCCc2nnc(C(=O)NCc3cccc(OC(F)(F)F)c3)s2)c(=O)c1 [Example 440, 5-{4-[4-(2-cyclohexylacetamido)-2-oxo-1,2-dihydropyridin-1-yl]butyl}-N-{[3-(trifluoromethoxy)phenyl]methyl]-1,3,4-thiadiazole-2-carboxamide] | < 100 nM | < 100 nM
O=C(CC1CCC1)Nc1ccn(CCCCc2nnc(C(=O)NCc3cc(C(F)(F)F)ccn3)s2)c(=O)c1F [Example 465, 5-{4-[4-(2-cyclobutylacetamido)-3-fluoro-2-oxo-1,2-dihydropyridin-1-yl]butyl}-N-{[4-(trifluoromethyl)pyridin-2-yl]methyl}-1,3,4-thiadiazole-2-carboxamide] | < 100 nM | < 100 nM
CC(C)OC(=O)Nc1ccn(CCC(F)Cn2cc(C(=O)NCc3cccc(OC(F)(F)F)c3)nn2)c(=O)n1 (centres unmarked) [Example 384, propan-2-yl N-(1-{3-fluoro-4-[4-({[3-(trifluoromethoxy)phenyl]methyl}carbamoyl)-1H-1,2,3-triazol-1-yl]butyl}-2-oxo-1,2-dihydro-pyrimidin-4-yl)carbamate] | < 100 nM | 100 to 500 nM

From patent publication US20160002204A1 (Board of Regents, The University of Texas System, priority 2014, published 2016)
